Nine compounds from PMC11443518, “Undescribed Amaryllidaceae Alkaloids from Zephyranthes citrina and Their Cytotoxicity” (Journal of Natural Products, 2024) can be followed below.

Assay [1] deals with A2780 (ovarian carcinoma). Nature of the assay: WST-1 cell proliferation assay, cytotoxicity screening. It is filed as cell-based. The conditions noted are these: Homo sapiens, read-out: growth percent (GP) A2780. From the text: (§1) Selected human tumor and nontumor cell lines Jurkat (acute T-cell leukemia), MOLT-4 (acute lymphoblastic leukemia), A549 (lung carcinoma), HT-29 (colorectal adenocarcinoma), PANC-1 (pancreas epithelioid carcinoma), A2780 (ovarian carcinoma), HeLa (cervix adenocarcinoma), MCF-7 (breast adenocarcinoma), SAOS-2 (osteosarcoma) and MRC-5 (nontumor lung fibroblasts) were purchased from European Collection of Authenticated Cell Cultures (ECACC, Salisbury, UK) and cultured according to the provider’s culture method guidelines. […] The cells in low passage number (nontumor primary cell line MRC-5 was used for a maximum of 10 passages and cancer cell lines were used for a maximum of 20 passages) and in an exponential growth phase were used for this study.
(§2) Each cell line was seeded at a previously established optimal density (1 × 10^3 to 50 × 10^3 cells per well) in a 96-well plate (TPP, Trasadingen, Switzerland) and cells were allowed to settle overnight. During screening tests for cytotoxicity, cells were treated with alkaloids at a final concentration of 10 μM for 48 h. Doxorubicin (Sigma-Aldrich, St. Louis, USA), at a concentration of 1 μM, was used as a positive control. At the end of the culture period, the WST-1 proliferation assay (Roche, Basel, Switzerland) was performed according to the manufacturer’s protocol. The absorbance was determined using a Tecan Spark microplate reader (Tecan, Männedorf, Switzerland). Each value is the mean of three independent experiments and represents the percentage of the proliferation of control, nontreated cells (100%). The growth percent (GP) value as the mean of the proliferation decrease was calculated for each cell line and derivative tested.

The subject of another assay is A549 (lung carcinoma). The description is as above. To be noted: Homo sapiens, read-out: growth percent (GP) A549. It is filed as cell-based.
From the text: as §1, §2

For assay [2], the system named is HT-29 (colorectal adenocarcinoma). The description is as above. Format: cell-based. To be noted: Homo sapiens, read-out: growth percent (GP) HT-29.
From the text: as §1, §2

In assay [3] the test system is HeLa (cervix adenocarcinoma). Described as above. It is filed as cell-based. To be noted: Homo sapiens, 48 h, read-out: growth percent (GP) HeLa.
From the text: as §1, §2

Assay [4] has as its system Jurkat (acute T-cell leukemia). The description is as above. The conditions noted are these: Homo sapiens, 48 h, read-out: growth percent (GP) Jurkat. It is filed as cell-based.
From the text: as §1, §2

The subject of assay [5] is MRC-5 (nontumor lung fibroblasts). The description is as above. The conditions noted are these: Homo sapiens, read-out: growth percent (GP) MRC-5; for activity at 10 µM: MRC5, 48 h. Format: cell-based.
From the text: as §1, §2

The subject of assay [6] is PANC-1 (pancreas epithelioid carcinoma). Described as above. Format: cell-based. To be noted: Homo sapiens, read-out: growth percent (GP) PANC-1.
From the text: as §1, §2

For a further assay, the system named is SAOS-2 (osteosarcoma). Described as above. Format: cell-based. The conditions noted are these: Homo sapiens, read-out: growth percent (GP) SAOS-2.
From the text: as §1, §2

Assay [7] has as its system MCF-7 (breast adenocarcinoma). The assay is described as above. The conditions noted are these: Homo sapiens, read-out: growth percent (GP) MCF-7. It is filed as cell-based, human.
From the text: as §1, §2

In assay [8] the test system is MOLT-4 (acute lymphoblastic leukemia). Described as above. Format: cell-based, human. The conditions noted are these: Homo sapiens, read-out: growth percent (GP) MOLT-4.
From the text: as §1, §2

Assay [9] relates to nine human tumor and one nontumor cell lines. Description: Cytotoxicity screening across the whole panel of cell lines. It is filed as cell-based. The conditions noted are these: Homo sapiens, read-out: GP value across the tested cell lines.
From the text: Concerning the cytotoxicity of alkaloids isolated from Z. citrina, initially, Prakash and Vedanayaki investigated the MeOH extract of the bulbs for its in vitro cytotoxic activity using the MTT assay against three human cancer cell lines from different tissue origins: cervical cancer (HeLa), breast cancer (MCF-7), and oral squamous carcinoma (SCC-9). […] In this context, and to assess potential negative effects on human cell cultures, compounds 1, and 3–27 were screened in our study for cytotoxicity using a 10 μM single-dose regimen. The results were compared with those using the clinically approved antineoplastic agent doxorubicin at 1 μM. The effect on cell growth was investigated on nine human tumor and one nontumor cell lines, namely Jurkat (acute T-cell leukemia), MOLT-4 (acute lymphoblastic leukemia), A549 (lung carcinoma), HT-29 (colorectal adenocarcinoma), PANC-1 (pancreas epithelioid carcinoma), A2780 (ovarian carcinoma), HeLa (cervix adenocarcinoma), MCF-7 (breast adenocarcinoma), SAOS-2 (osteosarcoma) and MRC-5 (nontumor lung fibroblasts). […] No toxicity is valuable information, especially for compound 18, as it is a potent inhibitor of hAChE and hBChE.[27]
Selected human tumor and nontumor cell lines Jurkat (acute T-cell leukemia), MOLT-4 (acute lymphoblastic leukemia), A549 (lung carcinoma), HT-29 (colorectal adenocarcinoma), PANC-1 (pancreas epithelioid carcinoma), A2780 (ovarian carcinoma), HeLa (cervix adenocarcinoma), MCF-7 (breast adenocarcinoma), SAOS-2 (osteosarcoma) and MRC-5 (nontumor lung fibroblasts) were purchased from European Collection of Authenticated Cell Cultures (ECACC, Salisbury, UK) and cultured according to the provider’s culture method guidelines. All cell lines were maintained at 37 °C in a humidified 5% carbon dioxide and 95% air incubator. The cells in low passage number (nontumor primary cell line MRC-5 was used for a maximum of 10 passages and cancer cell lines were used for a maximum of 20 passages) and in an exponential growth phase were used for this study.
as §2

The mark [10] stands for this setting: A2780, c = 10 μM, 48 h, % of proliferation of nontreated control.
The mark [11] stands for this setting: A549, c = 10 μM, 48 h, % of proliferation of nontreated control.
Where [12] appears, read: HT-29, c = 10 μM, 48 h, % of proliferation of nontreated control.
Where [13] appears, read: c = 10 μM, % of proliferation of nontreated control.
The mark [14] stands for this setting: PANC-1, c = 10 μM, 48 h, % of proliferation of nontreated control.
[15] abbreviates: SAOS-2, c = 10 μM, 48 h, % of proliferation of nontreated control.
The mark [16] stands for this setting: MCF7, c = 10 μM, 48 h, % of proliferation of nontreated control.
[17] abbreviates: MOLT-4, c = 10 μM, 48 h, % of proliferation of nontreated control.
Where [18] appears, read: 10 μM single dose, 48-h interval, all tested cell lines.

Structures are written as SMILES. Read-outs that look alike come from different tables or passages of the source. Some results are limits rather than exact numbers.

`COc1cc2c(cc1OC)[C@@]13CC[C@H](OC)C[C@@H]1N(CC3)C2O` (stereo partly drawn) [Compound 9, zephyranine E]: the activity at 10 µM stood at 111% in [1] (A2780, 48 h); 95% with A549 (lung carcinoma) (A549, 48 h); 95% in assay [2] (HT-29, 48 h); 106% in assay [3]; 96% in assay [4]; 100% in [5]. Besides, the activity at 10 µM in assay [6] (PANC-1, 48 h) was 98%; in the assay with SAOS-2 (osteosarcoma) (SAOS-2, 48 h), 77%; in assay [7] (MCF7, 48 h), 108%; in assay [8] (MOLT-4, 48 h), 79%; in [9] (48 h) it was more than 50%.

Regarding `CO[C@@H]1C=C[C@@]23c4cc5c(cc4CN(C[C@@H]2O)[C@H]3C1)OCO5` [Compound 12, haemanthamine], the activity at 10 µM in assay [1] (A2780, 48 h) was determined as 38%; in the assay on A549 (lung carcinoma) (A549, 48 h), 33%; in assay [2] (HT-29, 48 h), 5%; in [3], 16%; in assay [4], 18%; in assay [5] it was 32%. For the same compound, the activity at 10 µM in assay [6] (PANC-1, 48 h) was 37%; with SAOS-2 (osteosarcoma) (SAOS-2, 48 h), 34%; in assay [7] (MCF7, 48 h) it was 17%; in [8] (MOLT-4, 48 h), 6%.

On to `CO[C@@H]1C=C[C@@]23c4cc5c(cc4[C@H](O)N(C[C@@H]2O)[C@H]3C1)OCO5` [Compound 13, haemanthidine], for which the activity at 10 µM in assay [1] (A2780, 48 h) was 52%; with A549 (lung carcinoma) (A549, 48 h), 38%; in assay [2] (HT-29, 48 h) it was 7%; in assay [3] it was 25%; in [4], 23%; in assay [6] (PANC-1, 48 h), 38%. Moreover, the activity at 10 µM with SAOS-2 (osteosarcoma) (SAOS-2, 48 h) is 35%; in [7] (MCF7, 48 h), 24%; in [8] (MOLT-4, 48 h), 11%.

With `COc1ccc2c3c1O[C@H]1C[C@@H](O)CC[C@@]31CCN(C)C2` [Compound 19], the activity at 10 µM in [1] (A2780, 48 h) came out at 92%; in the assay with A549 (lung carcinoma) (A549, 48 h), 96%; in assay [2] (HT-29, 48 h), 83%; in [3], 82%; in assay [4], 102%; in [6] (PANC-1, 48 h), 102%. Besides, the activity at 10 µM in the assay with SAOS-2 (osteosarcoma) (SAOS-2, 48 h) is 97%; in assay [7] (MCF7, 48 h), 101%; in assay [8] (MOLT-4, 48 h), 105%; in assay [9] (48 h) it was more than 50%.

For the compound `CO[C@@H]1C=C[C@@]23c4cc5c(cc4CO[C@]2(O)CN(C)[C@H]3C1)OCO5` [Compound 20], the activity at 10 µM in assay [1] (A2780, 48 h) came to 101%; in the assay with A549 (lung carcinoma) (A549, 48 h), 83%; in assay [2] (HT-29, 48 h), 57%; in assay [3], 84%; in assay [4] it was 93%; in assay [6] (PANC-1, 48 h), 76%. In addition, the activity at 10 µM with SAOS-2 (osteosarcoma) (SAOS-2, 48 h) is 92%; in [7] (MCF7, 48 h), 94%; in assay [8] (MOLT-4, 48 h), 95%; in assay [9] (48 h), more than 50%.

For the compound `COc1cc2c(cc1OC)[C@@H]1[C@H](O)[C@@H](OC)C=C3CCN(C2)[C@H]31` [Compound 23], the activity at 10 µM was 113% in assay [1] (setting [10]); 93% in the assay with A549 (lung carcinoma) (setting [11]); 64% in assay [2] (setting [12]); 93% in [3] (setting [13]); 98% in assay [4] (setting [13]); 97% in assay [6] (setting [14]). In addition, the activity at 10 µM with SAOS-2 (osteosarcoma) (setting [15]) is 97%; in assay [7] (setting [16]), 114%; in assay [8] (setting [17]) it was 103%; in assay [9] (setting [18]), more than 50%.

As to `CC(=O)O[C@@H]1CC=C2CCN3Cc4cc5c(cc4[C@H]1[C@@H]23)OCO5` [Compound 26], the activity at 10 µM was 141% in assay [1] (setting [10]); 113% in the assay with A549 (lung carcinoma) (setting [11]); 107% in assay [2] (setting [12]); 98% in assay [3] (setting [13]); 132% in [4] (setting [13]); 119% in assay [6] (setting [14]). For the same compound, the activity at 10 µM in the assay on SAOS-2 (osteosarcoma) (setting [15]) was 95%; in assay [7] (setting [16]), 131%; in [8] (setting [17]), 119%; in [9] (setting [18]) it was more than 50%.

As for `O[C@H]1[C@H]2c3cc4c(cc3CN3CCC(=C[C@@H]1O)[C@H]23)OCO4` [Compound 27, lycorine], the activity at 10 µM in assay [1] (A2780, 48 h) is 39%; in the assay with A549 (lung carcinoma) (A549, 48 h) it was 27%; in assay [2] (HT-29, 48 h), 5%; in assay [3] it was 15%; in [4] it was 5%; in assay [5], 25%. For the same compound, the activity at 10 µM in [6] (PANC-1, 48 h) is 36%; in the assay with SAOS-2 (osteosarcoma) (SAOS-2, 48 h), 27%; in assay [7] (MCF7, 48 h), 27%; in [8] (MOLT-4, 48 h), 9%.

For the compound `COc1cccc2c1C(=O)c1c(O)c3c(c(O)c1C2=O)C[C@@](O)(C(=O)CO)C[C@@H]3O[C@H]1C[C@H](N)[C@H](O)[C@H](C)O1` [doxorubicin, reference compound], the activity at 1 µM in assay [1] (A2780, positive control, c = 1 μM, 48 h) turned out to be 5%; in the assay with A549 (lung carcinoma) (A549, positive control, c = 1 μM, 48 h), 66%; in assay [2] (HT-29, positive control, c = 1 μM, 48 h), 77%; in assay [3] (positive control, c = 1 μM) it was 7%; in [4] (positive control, c = 1 μM), 0%; in [5] (MRC5, positive control, c = 1 μM, 48 h) it was 40%. Besides, the activity at 1 µM in [6] (PANC-1, positive control, c = 1 μM, 48 h) came to 59%; in the assay on SAOS-2 (osteosarcoma) (SAOS-2, positive control, c = 1 μM, 48 h) it was 73%; in [7] (MCF7, positive control, c = 1 μM, 48 h), 41%; in [8] (MOLT-4, positive control, c = 1 μM, 48 h) it was 0%.
